In the kinase profiling compilation of Christmann-Franck et al. (2016):

Legend:
Assay in all cases: KINOMEscan competition binding
TEC (human) = TEC (human) (UniProt P42680)
STK10 (human) = STK10 (human) (UniProt O94804)
SRMS (human) = SRMS (human) (UniProt Q9H3Y6)
PRKAA2 (human) = PRKAA2 (human) (UniProt P54646)
[1] = biological target: FGFR3 (human), P22607 [G697C]
MAP4K2 (human) = MAP4K2 (human) (UniProt Q12851)
RPS6KA4 KD2 (human) = RPS6KA4 KD2 (human) (UniProt O75676)
[2] = biological target: ABL1 (human), P00519 [F317L]
RAF1 (human) = RAF1 (human) (UniProt P04049)
HIPK2 (human) = HIPK2 (human) (UniProt Q9H2X6)
PRKD2 (human) = PRKD2 (human) (UniProt Q9BZL6)
STK39 (human) = STK39 (human) (UniProt Q9UEW8)
CSNK1E (human) = CSNK1E (human) (UniProt P49674)
MYLK3 (human) = MYLK3 (human) (UniProt Q32MK0)
MAP3K10 (human) = MAP3K10 (human) (UniProt Q02779)
TNK2 (human) = TNK2 (human) (UniProt Q07912)
Chain of TNK2 (human) (Q07912 whole entry, looked up): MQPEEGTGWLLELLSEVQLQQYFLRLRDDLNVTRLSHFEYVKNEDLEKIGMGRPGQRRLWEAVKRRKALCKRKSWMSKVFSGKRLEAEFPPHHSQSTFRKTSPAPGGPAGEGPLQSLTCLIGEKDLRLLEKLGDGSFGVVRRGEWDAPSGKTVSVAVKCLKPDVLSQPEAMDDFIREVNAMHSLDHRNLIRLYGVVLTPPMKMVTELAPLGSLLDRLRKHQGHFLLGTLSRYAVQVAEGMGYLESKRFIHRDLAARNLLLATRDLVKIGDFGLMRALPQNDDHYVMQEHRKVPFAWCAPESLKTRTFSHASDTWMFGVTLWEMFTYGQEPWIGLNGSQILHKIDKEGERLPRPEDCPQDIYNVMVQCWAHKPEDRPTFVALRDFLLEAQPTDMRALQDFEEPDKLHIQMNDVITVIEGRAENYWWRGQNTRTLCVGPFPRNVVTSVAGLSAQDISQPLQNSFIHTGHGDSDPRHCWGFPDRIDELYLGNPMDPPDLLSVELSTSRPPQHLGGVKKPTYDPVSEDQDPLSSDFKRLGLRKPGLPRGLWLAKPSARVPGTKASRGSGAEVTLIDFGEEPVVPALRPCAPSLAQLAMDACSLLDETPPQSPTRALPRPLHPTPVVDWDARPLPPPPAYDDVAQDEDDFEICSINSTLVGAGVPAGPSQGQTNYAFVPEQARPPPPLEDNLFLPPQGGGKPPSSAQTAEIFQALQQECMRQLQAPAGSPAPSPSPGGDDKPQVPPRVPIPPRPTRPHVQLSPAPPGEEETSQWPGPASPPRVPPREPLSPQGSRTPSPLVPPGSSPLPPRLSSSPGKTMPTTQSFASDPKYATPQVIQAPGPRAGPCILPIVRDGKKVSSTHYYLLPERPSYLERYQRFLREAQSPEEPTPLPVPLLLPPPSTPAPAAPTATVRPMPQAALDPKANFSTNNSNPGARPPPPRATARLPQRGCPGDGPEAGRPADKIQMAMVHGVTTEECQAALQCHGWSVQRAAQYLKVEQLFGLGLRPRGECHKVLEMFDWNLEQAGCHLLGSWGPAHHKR

CLK2 (human) = CLK2 (human) (UniProt P49760)
[3] = biological target: FLT3 (human), P36888 [K663Q]
TIE1 (human) = TIE1 (human) (UniProt P35590)
NTRK3 (human) = NTRK3 (human) (UniProt Q16288)
IKBKB (human) = IKBKB (human) (UniProt O14920)
MYO3B (human) = MYO3B (human) (UniProt Q8WXR4)
MAP2K3 (human) = MAP2K3 (human) (UniProt P46734)
RPS6KA5 KD1 (human) = RPS6KA5 KD1 (human) (UniProt O75582)
Chain of RPS6KA5 KD1 (human) (O75582 whole entry, looked up): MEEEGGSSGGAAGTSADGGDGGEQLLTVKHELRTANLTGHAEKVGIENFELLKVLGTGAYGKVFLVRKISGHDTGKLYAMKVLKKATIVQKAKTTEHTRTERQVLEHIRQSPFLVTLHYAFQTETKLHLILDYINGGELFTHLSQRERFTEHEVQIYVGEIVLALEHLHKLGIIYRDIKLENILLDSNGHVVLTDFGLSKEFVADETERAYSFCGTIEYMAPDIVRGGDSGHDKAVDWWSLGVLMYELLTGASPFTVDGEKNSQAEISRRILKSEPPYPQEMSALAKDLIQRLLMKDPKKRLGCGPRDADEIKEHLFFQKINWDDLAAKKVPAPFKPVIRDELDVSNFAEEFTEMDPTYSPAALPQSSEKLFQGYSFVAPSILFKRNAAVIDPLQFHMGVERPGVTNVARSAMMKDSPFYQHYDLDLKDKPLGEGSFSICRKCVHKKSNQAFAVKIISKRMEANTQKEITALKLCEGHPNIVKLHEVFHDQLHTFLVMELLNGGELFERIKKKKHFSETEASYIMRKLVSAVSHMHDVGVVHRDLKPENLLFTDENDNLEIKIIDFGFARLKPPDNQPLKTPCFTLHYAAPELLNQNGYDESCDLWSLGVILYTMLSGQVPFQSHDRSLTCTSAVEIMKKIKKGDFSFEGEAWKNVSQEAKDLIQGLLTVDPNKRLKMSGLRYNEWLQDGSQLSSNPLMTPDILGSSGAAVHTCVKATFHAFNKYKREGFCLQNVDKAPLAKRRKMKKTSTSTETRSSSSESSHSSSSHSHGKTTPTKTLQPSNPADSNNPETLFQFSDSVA

STK35 (human) = STK35 (human) (UniProt Q8TDR2)
FLT3 (human) = FLT3 (human) (UniProt P36888)
BMX (human) = BMX (human) (UniProt P51813)
CSNK1D (human) = CSNK1D (human) (UniProt P48730)
TESK1 (human) = TESK1 (human) (UniProt Q15569)
LIMK1 (human) = LIMK1 (human) (UniProt P53667)
Chain of LIMK1 (human) (P53667 whole entry, looked up): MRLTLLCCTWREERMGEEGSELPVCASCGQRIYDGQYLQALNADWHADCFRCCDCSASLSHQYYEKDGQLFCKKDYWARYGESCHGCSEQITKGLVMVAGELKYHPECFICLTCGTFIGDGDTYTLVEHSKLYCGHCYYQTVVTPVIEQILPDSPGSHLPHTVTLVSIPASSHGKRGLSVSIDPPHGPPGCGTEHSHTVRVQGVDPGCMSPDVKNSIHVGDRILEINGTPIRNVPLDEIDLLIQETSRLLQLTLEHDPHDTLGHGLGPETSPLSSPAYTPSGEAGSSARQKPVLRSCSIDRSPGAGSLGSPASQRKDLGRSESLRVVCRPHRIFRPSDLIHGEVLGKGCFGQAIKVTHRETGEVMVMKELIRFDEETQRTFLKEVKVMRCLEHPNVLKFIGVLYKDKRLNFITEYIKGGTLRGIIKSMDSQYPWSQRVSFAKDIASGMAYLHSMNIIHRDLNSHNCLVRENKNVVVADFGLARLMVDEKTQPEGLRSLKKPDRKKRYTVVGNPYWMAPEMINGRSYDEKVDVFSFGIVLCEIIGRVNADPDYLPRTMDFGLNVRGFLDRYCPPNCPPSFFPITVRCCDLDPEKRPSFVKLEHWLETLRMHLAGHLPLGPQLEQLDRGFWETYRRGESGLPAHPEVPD

ADCK4 (human) = ADCK4 (human) (UniProt Q96D53)
CDK11B (human) = CDK11B (human) (UniProt P21127)
TTK (human) = TTK (human) (UniProt P33981)
[4] = biological target: ABL1 (human), P00519 [F317I]
PLK4 (human) = PLK4 (human) (UniProt O00444)
Chain of PLK4 (human) (O00444 whole entry, looked up): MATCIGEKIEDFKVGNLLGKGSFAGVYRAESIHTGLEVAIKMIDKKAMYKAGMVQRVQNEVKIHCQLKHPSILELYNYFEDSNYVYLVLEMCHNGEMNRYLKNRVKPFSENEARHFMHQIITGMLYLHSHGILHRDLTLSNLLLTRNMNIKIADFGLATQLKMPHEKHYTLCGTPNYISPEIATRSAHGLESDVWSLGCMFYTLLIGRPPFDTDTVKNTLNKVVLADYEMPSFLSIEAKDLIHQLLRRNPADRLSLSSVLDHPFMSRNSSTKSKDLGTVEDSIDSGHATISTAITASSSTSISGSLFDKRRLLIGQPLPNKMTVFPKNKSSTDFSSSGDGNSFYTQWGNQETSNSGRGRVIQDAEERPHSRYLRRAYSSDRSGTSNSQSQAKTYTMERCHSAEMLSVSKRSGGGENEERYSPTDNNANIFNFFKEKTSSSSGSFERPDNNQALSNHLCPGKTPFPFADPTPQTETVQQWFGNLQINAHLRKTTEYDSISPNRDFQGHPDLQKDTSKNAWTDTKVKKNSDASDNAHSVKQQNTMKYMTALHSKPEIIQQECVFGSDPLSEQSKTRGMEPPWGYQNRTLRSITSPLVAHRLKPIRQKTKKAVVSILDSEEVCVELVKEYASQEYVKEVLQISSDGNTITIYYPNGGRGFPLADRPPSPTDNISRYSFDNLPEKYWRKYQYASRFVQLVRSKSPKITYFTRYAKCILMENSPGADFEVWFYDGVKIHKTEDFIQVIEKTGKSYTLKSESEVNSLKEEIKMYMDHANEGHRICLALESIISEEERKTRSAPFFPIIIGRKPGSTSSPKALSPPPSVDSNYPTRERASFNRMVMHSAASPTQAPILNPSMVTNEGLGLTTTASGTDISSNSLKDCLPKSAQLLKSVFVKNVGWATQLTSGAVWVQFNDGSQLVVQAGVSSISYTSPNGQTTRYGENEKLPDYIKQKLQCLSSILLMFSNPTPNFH

CDC2L2 (human) = CDC2L2 (human) (UniProt Q9UQ88)
CDK7 (human) = CDK7 (human) (UniProt P50613)
CLK4 (human) = CLK4 (human) (UniProt Q9HAZ1)
Chain of CLK4 (human) (Q9HAZ1 whole entry, looked up): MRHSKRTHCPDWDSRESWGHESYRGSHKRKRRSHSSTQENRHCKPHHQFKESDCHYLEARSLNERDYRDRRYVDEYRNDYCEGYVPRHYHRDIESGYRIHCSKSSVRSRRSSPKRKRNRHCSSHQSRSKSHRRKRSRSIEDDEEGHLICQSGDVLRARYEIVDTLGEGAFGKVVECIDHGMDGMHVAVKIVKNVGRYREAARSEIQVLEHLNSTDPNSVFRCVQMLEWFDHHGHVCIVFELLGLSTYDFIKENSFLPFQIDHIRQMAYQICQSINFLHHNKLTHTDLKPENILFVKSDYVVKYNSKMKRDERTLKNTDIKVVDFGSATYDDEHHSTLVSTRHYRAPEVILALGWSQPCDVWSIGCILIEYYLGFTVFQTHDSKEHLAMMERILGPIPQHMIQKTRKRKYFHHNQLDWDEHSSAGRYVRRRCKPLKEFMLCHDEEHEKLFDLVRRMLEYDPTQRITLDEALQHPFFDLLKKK

AXL (human) = AXL (human) (UniProt P30530)
ALK (human) = ALK (human) (UniProt Q9UM73)
SYK (human) = SYK (human) (UniProt P43405)

Chain of MAP4K2 (human) (Q12851 whole entry, looked up): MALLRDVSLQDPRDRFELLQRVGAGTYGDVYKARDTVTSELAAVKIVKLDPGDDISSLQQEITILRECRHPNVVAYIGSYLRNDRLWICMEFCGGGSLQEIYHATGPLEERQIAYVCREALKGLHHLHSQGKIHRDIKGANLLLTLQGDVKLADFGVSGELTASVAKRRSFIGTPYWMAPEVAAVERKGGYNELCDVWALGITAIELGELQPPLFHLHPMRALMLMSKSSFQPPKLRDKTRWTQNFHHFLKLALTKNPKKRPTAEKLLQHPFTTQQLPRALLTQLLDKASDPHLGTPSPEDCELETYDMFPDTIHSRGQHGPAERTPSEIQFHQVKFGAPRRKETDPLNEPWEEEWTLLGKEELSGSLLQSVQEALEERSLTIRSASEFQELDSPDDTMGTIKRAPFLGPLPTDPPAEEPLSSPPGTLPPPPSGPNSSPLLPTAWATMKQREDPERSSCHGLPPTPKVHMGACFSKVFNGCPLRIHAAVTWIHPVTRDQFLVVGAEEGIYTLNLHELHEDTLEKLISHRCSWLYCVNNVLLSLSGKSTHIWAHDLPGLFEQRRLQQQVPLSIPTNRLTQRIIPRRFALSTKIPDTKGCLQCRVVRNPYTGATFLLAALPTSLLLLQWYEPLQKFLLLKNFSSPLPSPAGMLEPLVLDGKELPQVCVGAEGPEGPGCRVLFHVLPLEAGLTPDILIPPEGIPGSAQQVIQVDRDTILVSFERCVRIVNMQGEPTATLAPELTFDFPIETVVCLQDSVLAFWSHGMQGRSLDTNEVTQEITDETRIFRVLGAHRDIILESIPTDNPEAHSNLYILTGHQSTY

`COc1cc2ncnc(Oc3cccc(NC(=O)Nc4cc(C(C)(C)C(F)(F)F)on4)c3)c2cc1OC` was tested, and the Kd (TEC (human)) was 6 µM, the Kd (STK10 (human)) was 0.0017 µM and the Kd (SRMS (human)) was 3 µM. The Kd (PRKAA2 (human)) was 28 µM, the Kd [1] was 3.1 µM and the Kd (MAP4K2 (human)) was 0.98 µM. The Kd (RPS6KA4 KD2 (human)) was 36 µM, the Kd [2] was 0.0038 µM and the Kd (RAF1 (human)) was 0.039 µM. It also gave a Kd (HIPK2 (human)) of 1 µM, a Kd (PRKD2 (human)) of 19 µM and a Kd (STK39 (human)) of 37 µM. It also gave a Kd (CSNK1E (human)) of 16 µM, a Kd (MYLK3 (human)) of 26 µM and a Kd (MAP3K10 (human)) of 5.6 µM. For the same compound, the Kd (TNK2 (human)) was 8.7 µM, the Kd (CLK2 (human)) was 21 µM and the Kd [3] was 0.0042 µM. For the same compound, the Kd (TIE1 (human)) was 0.024 µM, the Kd (NTRK3 (human)) was 2.2 µM and the Kd (IKBKB (human)) was 0.96 µM. For the same compound, the Kd (MYO3B (human)) was 6.8 µM, the Kd (MAP2K3 (human)) was 31 µM and the Kd (RPS6KA5 KD1 (human)) was 13 µM. The Kd (STK35 (human)) was 0.47 µM, the Kd (FLT3 (human)) was 0.0042 µM and the Kd (BMX (human)) was 0.82 µM. For the same compound, the Kd (CSNK1D (human)) was 13 µM, the Kd (TESK1 (human)) was 38 µM and the Kd (LIMK1 (human)) was 27 µM. For the same compound, the Kd (ADCK4 (human)) was 26 µM, the Kd (CDK11B (human)) was 0.27 µM and the Kd (TTK (human)) was 1.7 µM. It also gave a Kd [4] of 0.0025 µM, a Kd (PLK4 (human)) of 15 µM and a Kd (CDC2L2 (human)) of 0.17 µM. It also gave a Kd (CDK7 (human)) of 0.52 µM, a Kd (CLK4 (human)) of 16 µM and a Kd (AXL (human)) of 2.7 µM. The Kd (ALK (human)) was 34 µM and the Kd (SYK (human)) was 0.26 µM.
